Assay results reported in patent publication EP1357114A1, “Substituted pyrimidin-2,4(1H,3H)-diones as inhibitors of Matrix Metalloproteinases (MMP)” (IBFB GmbH Privates Institut für biomedizinische Forschung …, priority 2002, dated 2003).

Molecular target: T1, MMP-2 (Homo sapiens, UniProt P08253)
T1 construct: endogenous in cells; host or cells: cultured human dermal fibroblasts (secreted into conditioned medium)
T1 sequence (P08253 110-660): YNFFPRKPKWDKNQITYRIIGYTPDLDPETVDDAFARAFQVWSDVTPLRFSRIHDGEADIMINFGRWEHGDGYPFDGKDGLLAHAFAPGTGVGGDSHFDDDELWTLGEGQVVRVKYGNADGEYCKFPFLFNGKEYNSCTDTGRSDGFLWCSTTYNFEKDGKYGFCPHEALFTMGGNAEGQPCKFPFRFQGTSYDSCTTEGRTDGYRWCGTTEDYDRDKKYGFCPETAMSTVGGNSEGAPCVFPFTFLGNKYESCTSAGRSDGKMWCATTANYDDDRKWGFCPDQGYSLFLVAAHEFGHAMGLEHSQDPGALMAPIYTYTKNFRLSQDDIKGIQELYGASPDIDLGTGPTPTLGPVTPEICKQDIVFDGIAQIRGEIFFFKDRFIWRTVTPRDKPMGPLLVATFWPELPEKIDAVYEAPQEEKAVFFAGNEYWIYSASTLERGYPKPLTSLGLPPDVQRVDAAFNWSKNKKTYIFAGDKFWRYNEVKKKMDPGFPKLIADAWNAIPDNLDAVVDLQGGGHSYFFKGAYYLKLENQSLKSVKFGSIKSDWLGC
Assay: Quantitative fluorescence assay for matrix metalloproteinases (cleavage of Mca-Pro-Leu-Gly-Leu-Dpa-Ala-Arg-NH2)
Format: biochemical
Procedure: MMP-2 (Gelatinase) wird von kultivierten dermalen Fibroblasten in beträchtlichen Mengen in das Kulturmedium abgegeben und ist daher leicht zugänglich. Die sezernierte und inaktive Proform des Enzyms wird durch Behandlung mit organischen Quecksilberverbindungen in die enzymatisch aktive Form überführt.
Hierzu werden humane dermale Fibroblasten nach etablierten Standardmethoden gewonnen und kultiviert. Aus dem konditionierten Zellmedium wird humane MMP-2 durch folgende Methode gewonnen: 500 ml Zellmedium werden 30 min. bei 10 000 g zentrifugiert und der Überstand mit einem Vol. 2-fach Bindungspuffer (40 mM Tris-HCI pH 7,5 , 10 mM CaCl2, 1 M NaCI, 0,2% (v/v) Triton X-100) versetzt. Dazu gibt man 6 ml Gelatine-Agarose, welche mit Bindungspuffer äquilibriert wurde, und schüttelt für 1 Std. auf Eis. Die beladene Gelatine-Agarose wird in eine Säule überführt und mit mindestens 10 Vol. Bindungspuffer proteinfrei gespült. Die Elution der gebundenen MMP-2 erfolgt mit 2 Gelvolumen Bindungspuffer plus 5% (v/v) DMSO. Das Eluat enthält die humane MMP-2 als inaktives Zymogen in stark angereicherter Form. Fremdproteine sind TIMP-2 und Fibronektin; das letztere kann durch eine Gelfiltration an Sephacryl S-200 abgetrennt werden. Laufpuffer ist 100 mM Tris-HCI pH 7,5, 10 mM CaCl2, 100 mM NaCI, 0,05% (v/v) Brij 35. Die inaktive humane MMP-2 wird durch zweistündige Inkubation bei 37 °C in Gegenwart von 1 mM p-Aminophenylmercuric Acetate (APMA) aktiviert. Zur Beseitigung von APMA nach Aktivierung wird die Probe an Sephadex G-25 in Laufpuffer (s.o.) filtriert.
Durch enzymatische Spaltung des synthetischen Substrates Mca-Pro-Leu-Gly-Leu-Dpa-Ala-Arg-NH2 durch die jeweilige Kollagenase, wird die fluoreszente Gruppe Mca ((7-Methoxycoumarin-4-yl)acetyl) vom internen Quencher Dpa ((N-3-(2,4-dinitrophenyl)-L-2,3-diaminopropienyl) getrennt. Dabei erfolgt eine starke Zunahme der Fluoreszenz im Messansatz, die am Fluorimeter quantifiziert werden kann (λex 328 nm, λem 393 nm) und innerhalb der ersten Minuten linear verläuft. Eine gewisse Spezifität des Tests für Matrix-Metalloproteinasen ergibt sich einerseits aus der Aminosäuresequenz -Pro-Leu-Gly-Leu- im Substrat und andererseits durch die gewählten Inkubationsbedingungen. Matrix-Metalloproteinasen spalten das Substrat an der Bindung Gly-Leu. Gemessen wird die proteolytische Restaktivität vorinkubierter Ansätze von Enzym und Inhibitor, wobei die Substrat- und Enzymkonzentration konstant gehalten und die Inhibitorkonzentration variiert wurde. Es wurden für jeden getesteten Inhibitor drei Messreihen mit unterschiedlicher Substratkonzentration aufgenommen. Aus der zeitabhängigen Fluoreszenzzunahme wird die Enzymaktivität in Fluoreszenzeinheiten pro min berechnet. Die Bestimmung der Ki-Werte erfolgte graphisch nach der Methode von DIXON (1953) durch Auftragung der reziproken Reaktionsgeschwindigkeit 1/v (y-Achse) gegen Inhibitorkonzentration (x-Achse).
1984 µl Messpuffer (100mM Tris-HCI pH 7,5, 100 mM NaCI, 10 mM CaCl2, 0,05% Brij 35 bzw. 50 mM MES-NaOH, pH 6.0, 10 mM CaCl2, 100 mM NaCI, 0.05% Brij 35 im Fall der KaDo MMP-3) 2 µl Inhibitor, gelöst in DMSO, bzw. DMSO allein (nichtinhibierender Ansatz) 4 µl Enzym • 5 min. Vorinkubation des Enzym-Inhibitor-Gemischs bei Raumtemperatur unter Rühren • Start der Reaktion mit 10 µl Substrat gelöst in DMSO • Aufzeichnung der zeitabhängigen Fluoreszenzzunahme über 2 - 10 min.

MMP-2 Hemmung (bei 10 µM)	Compound	further results
50% Hemmung bei 10 µM	O=c1[nH]c2ccc(Cl)cc2c(=O)n1CC(S)CS (racemic) [Beispiel 4, (R,S)-6-Chlor-3-(2,3-dimercaptopropyl)chinazolin-2,4-(1H,3H)dion]	
	O=C(NCc1ccccc1)c1ccc2c(=O)n(CC(S)CS)c(=O)[nH]c2c1 (racemic) [Beispiel 8, (R,S)-N-Benzyl-3-(2,3-dimercaptopropyl)-2,4-dioxo-1,2,3,4-tetrahydrochinazolin-7-carboxamide]	MMP-2 Hemmung (bei 5 µM): 50% Hemmung bei 5µM
50% Hemmung bei 10 µM	Cc1cccc2[nH]c(=O)n(CC(S)CS)c(=O)c12 (racemic) [Beispiel 5, (R,S)-3-(2,3-Dimercaptopropyl)-5-methyl-chinazolin-2,4-(1H,3H)dion]	
70% Hemmung bei 10 µM	O=c1[nH]c2ccccc2c(=O)n1CC(S)CS (racemic) [Beispiel 1, (R,S)-3-(2,3-Dimercaptopropyl)chinazolin-2,4-(1H,3H)dion]	
	O=c1[nH]c2sc(-c3ccccc3)cc2c(=O)n1CC(S)CS (racemic) [Beispiel 11, (R,S)-3-(2,3-Dimercaptopropyl)-6-phenylthieno[2,3-d]pyrimidin-2,4(1H,3H)-dion]	MMP-2 Hemmung (bei 1 µM): 15% Hemmung bei 1 µM
	COc1cc2[nH]c(=O)n(CC(S)CS)c(=O)c2cc1OC (racemic) [Beispiel 7, (R,S)-3-(2,3-Dimercaptopropyl)-6,7-dimethoxy-chinazolin-2,4-(1H,3H)dion]	MMP-2 Hemmung (bei 1 µM): 20% Hemmung bei 1 µM
90% Hemmung bei 10 µM	O=c1[nH]c2cc(Cl)ccc2c(=O)n1CC(S)CS (racemic) [Beispiel 3, (R,S)-7-Chlor-3-(2,3-dimercaptopropyl)chinazolin-2,4-(1H,3H)dion]	
52% Hemmung bei 10 µM	O=c1[nH]c2sc3c(c2c(=O)n1CC(S)CS)CCCC3 (racemic) [Beispiel 10, (R,S)-3-(2,3-Dimercaptopropyl)-5,6,7,8-tetrahydro[1]benzothieno[2,3-d]pyrimidin-2,4(1H,3H)-dion]	
	O=c1[nH]c2ccsc2c(=O)n1CC(S)CS (racemic) [Beispiel 9, (R,S)-3-(2,3-Dimercaptopropyl)thieno[3,2-d]pyrimidin-2,4(1H,3H)-dion]	MMP-2 Hemmung (bei 3 µM): 50% Hemmung bei 3 µM
